Experiments:
[1] = molecular target: T1, OleT (Jeotgalicoccus sp. ATCC 8456, UniProt E9NSU2); test: 1-undecene production, total turnover; type: biochemical; details: CamAB redox partner system
T1 sequence (E9NSU2 1-422): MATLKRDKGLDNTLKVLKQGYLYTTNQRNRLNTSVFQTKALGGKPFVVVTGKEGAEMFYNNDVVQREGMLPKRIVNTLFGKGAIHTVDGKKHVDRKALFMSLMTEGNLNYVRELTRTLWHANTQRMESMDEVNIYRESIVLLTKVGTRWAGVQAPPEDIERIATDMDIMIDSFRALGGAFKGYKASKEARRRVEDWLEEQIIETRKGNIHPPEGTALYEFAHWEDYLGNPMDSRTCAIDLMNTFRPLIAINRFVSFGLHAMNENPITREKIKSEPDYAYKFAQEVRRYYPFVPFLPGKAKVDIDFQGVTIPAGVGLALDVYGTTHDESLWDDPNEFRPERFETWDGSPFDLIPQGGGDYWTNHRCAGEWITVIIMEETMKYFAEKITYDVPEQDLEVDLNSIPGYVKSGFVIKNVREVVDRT

[2] = molecular target: T2, UndA (Pseudomonas putida, UniProt A5W7G6); test: 1-undecene production, total turnover; type: biochemical; details: optimal conditions of UndA; details in supplement
T2 sequence (A5W7G6 1-271): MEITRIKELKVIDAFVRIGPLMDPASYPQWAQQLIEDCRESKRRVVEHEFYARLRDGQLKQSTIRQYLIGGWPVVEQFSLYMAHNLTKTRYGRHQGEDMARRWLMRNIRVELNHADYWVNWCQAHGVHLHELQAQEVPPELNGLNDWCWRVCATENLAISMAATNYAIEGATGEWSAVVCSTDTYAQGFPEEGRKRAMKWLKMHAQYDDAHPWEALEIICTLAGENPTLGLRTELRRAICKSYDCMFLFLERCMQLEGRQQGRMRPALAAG

## CCCCCCCCCCCC(=O)O [compound 5, lauric acid]
[1]
  1-undecene production, total turnover: UndB, OleT, and OleT-AldO showed substantial 1-undecene production (fig. S6)
[2]
  1-undecene production, total turnover: While UndA exhibited poor activity

From publication PMC11204201 (Science Advances, 2024)
